Consider 15 molecules from patent US5378694A, “Acyl and alkoxy substituted quinolines” (Schering Corporation, priority 1993, dated 1995).

Data set [1] can be described thus: Compound toxicity assay: inhibition of HeLa cell translation (3H-LEU assay). The class given is cell-based. As to conditions: human; HeLa cells, cellular translational activity; read-out: CYTOTOXICITY 3H-LEU ASSAY IC50. How it is done: HeLa cells were treated with inhibitory compound for 24 hours, after which levels of translational activity were assayed.
For assay of translational activity, HeLa cultures were grown to 80% confluency in 96 well microtiter plates, treated with appropriate concentrations of compound in 2% EMEM during an overnight incubation at 37° C., then rinsed with HBSS and overlaid with […] of 2% EMEM containing 8 μCi of tritiated leucine (^3 H-LEU, 141 Cu/mMol, Amersham Corp., Arlington Heights Ill.). After a 1 hour incubation at 36.5° C., the cells were rinsed twice with phosphate-buffered saline (PBS) and lysed in 400 ul/well of 1 × PBS, 0.5% sodium dodecyl sulphate (SDS). After a 10 min incubation at 36.5° C., the contents of the well were transferred to a well in a Millititer HA microfiltration plate (Millipore Corp., Bedford, Mass.). The TCA-insolubleproteins were precipitated onto the filter disc by a 10 min fixation with 5% TCA, followed by filtration under vacuum and three 10 minute rinses with 95% ethanol. The filters were dried at room temperature, cut from the milltitier plate and transferred to scintillation vials. TCA-precipitable counts were assayed in 5 ml of Scintisol (Isolab, Akron, Ohio). The inhibitory activity of a compound was plotted versus the concentration and an IC50 value (that concentration of the compound required to decrease cellular translational activity by 50%) was derived for each compound.

In data set [2] the test system is HSV-2 (strain MS). The data set is described as follows: Transient expression of beta galactosidase in transfected HeLa cells superinfected with HSV-2 (HSV-β-Gal assay). The class given is cell-based. To be noted: 24 hours. As for the experimental part: HeLa and Vero cell cultures were maintained in Eagles Minimal Essential Medium (EMEM) which was supplemented with glutamine, penicillin, streptomycin and 10% fetal calf serum (10% EMEM). Stock cultures of HSV-2 (strain MS available from ATCC VR-540) were grown in and harvested from Vero cells. Viral stocks were titered in Vero cells according to established procedures.
Plasmid pON^ori- 245 contains the promoter of the HSV-1 thymidine kinase (tk) gene located immediately 5' of the E. coli lac Z gene. In this arrangement, the tk promoter controls transcription from the bacterial gene in transient expression assays. Additionally, an SV40 polyadenylation signal is present at the 3' end of the lac Z gene to allow for the efficient translation of the mRNA in eucaryotic cells. The expression of beta galactosidase in a transient assay using pON 245^ori- is dependent upon superinfection of the transfected cells with HSV. […] For example, see European Patent Application No. 88302149.5 filed Mar. 11, 1988 and published Sep. 14, 1988 as 282,330, the disclosure of which is incorporated herein by reference thereto.
HeLa cells were seeded into 96 well microtiter plates and allowed to grow to 80% confluency (approximately 35000 cells/well). One half microgram of plasmid pON 245^ori- DNA was introduced into the cells of each well by the […] precipitation technique (Grabman and Van der Eb, 1973). Four to six hours later, the cells were rinsed with Hank's Balanced Salt Solution (HBSS), overlaid with 10% EMEM and incubated at 37° C. At 24 hours post-transfection, cells were rinsed, overlaid with 10% EMEM again and re-incubated at 37° C. At 48 hours post-transfection, cells were rinsed and overlaid with either EMEM containing 2% fetal calf serum (2% EMEM), 2% EMEM containing HSV-2 (strain MS, Multiplicity of Infection [moi]=5 pfu/cell) or 2% EMEM containing HSV-2 and the appropriate concentration of the compound to be tested. Twenty-four hours later, the cells were harvested and assayed for beta-galactosidase activity as described below.
All determinations of beta galactosidase activity were performed in 96-well microtiter plates. The intracellular level of beta-galactosidase activity in each well was determined from cell lysates of the monolayer cultures. Aliquots were assayed by incubation in the presence of beta-galactosidase substrate, 4-methylumbelliferyl-β-D-galactoside (MUG, 125 ug/ml, Sigma), for 2 hours. The generation of fluorescent product was quantified on a Microfluor microfluorimeter (Dynatech) after addition of 0.1M glycine, pH 10.3 (Spaete and Mocarski, 1985). The inhibitory activity of a compound was plotted versus the concentration and an IC50 value (the concentration in mcg/ml of compound required to reduce beta-galactosidase expression by 50%) was obtained for each compound tested.

The target in data set [3] is T1, cGMP phosphodiesterase (cGMP-PDE) (Bos taurus, UniProt Q28156).
T1 construct: is a homogeneous enzyme obtained from bovine lung; from tissue; host or cells: bovine lung
Briefly: Phosphodiesterase inhibition in vitro (cGMP-PDE). The format is biochemical. To be noted: bovine lung cGMP-PDE; 1 μM 3H-cGMP, pH 7.5, 25 minutes, room temperature.

A short description of data set [4]: SHR assay, blood pressure in conscious spontaneously hypertensive rats. The format is in vivo, rat (spontaneously hypertensive rats. To be noted: P.O. As for the experimental part:
The ability of the compounds to lower blood pressure can be assessed in vivo in conscious spontaneously hypertensive rats (SHRs). SHR males are purchased from Taconic Farms, Germantown, N.Y. and are approximately 16-18 weeks old when anesthetized with ether. The caudal (ventral tail) artery is cannulated with polyethylene tubing (PE50), and blood pressure and heart rate are recorded as described by Baum, T. et. al., J. Cardiovasc. Pharmacol., Vol 5, pp. 655-667 (1983). Rats are placed into plastic cylindrical cages where they rapidly recover consciousness. Blood pressure and heart rate are allowed to stabilize for approximately 90 minutes prior to administration of the test compound. Compounds are administered orally as solutions or suspensions in 0.4% aqueous methylcellulose vehicle via a feeding needle. The compound or 0.4% aqueous methylcellulose vehicle is given in a volume of 4 ml/kg to SHRs that been fasted overnight. Activity is expressed as the fall in mean blood pressure (MBP) in millimeters of mercury (mm Hg). Compound-induced changes are compared with the changes in an appropriate placebo group.

The test system of data set [5] is HSV-2, strain MS. Briefly: In vivo anti-HSV efficacy, prophylactic guinea pig model of HSV infection. As to conditions: 60 mg per kg s.c., T.I.D., 10 days; for Neurological Dysfunction (%): percentage of animals developing loss of bladder/hindlimb control, placebo 66; for MLS (Maximum Lesion Scores): scale of 1 to 4, first dose 24 hours before infection, placebo 2.22. How it is done: The in vivo assessment of anti-HSV efficacy was determined in the prophylactic guinea pig model of HSV infection described by Stansberry et al. (1982). Dosing of guinea pigs comprised an initial treatment with test compound given 24 hours prior to virus infection and subsequent administration of the compound every eight hours (T.I.D.) for a total of 10 days. Test compounds were administered subcutaneously in 0.5% buffered methyl cellulose at a dose of 60 mg per kg body weight of the animal. Animals were monitered daily for the development of genital lesions and neurological symptomology, both of which were recorded and compared to the results obtained with parallel groups which received placebo or acyclovir. Efficacy was evaluated for each compound by scoring the ability of the compound to ameliorate genital lesions produced by infection with HSV-2, strain MS, expressed as Maximum Lesson Scores (MLS) on a scale of 1 (least lessions) to 4 (severe lessons).

For data set [6], the system named is HSV-2. As to conditions: against HSV-2; cited from earlier work.
Data set [7] concerns herpes virus. To be noted: mammals; cited from earlier work.
Data set [8] relates to HSV. To be noted: humans; cited from earlier work.
For data set [9], the system named is HSV-1. To be noted: against HSV-1; cited from earlier work.
Setting [10] is: Human alphaherpesvirus 2, moi 5 pfu/cell, read-out: ANTI-HSV ACTIVITY HSV-β-Gal ASSAY IC50.
Setting [11] is: Human alphaherpesvirus 2, Repeat, moi 5 pfu/cell, read-out: ANTI-HSV ACTIVITY HSV-β-Gal ASSAY IC50 (repeat).

SMILES strings stand for the structures. pIC50: −log10 of the molar value. Read-outs that look alike come from different tables or passages of the source.

Usually IC50 stands for the concentration at which inhibition is half-maximal. For orientation: pIC50 means the IC50 on a negative log10 scale, so that one unit is a factor of ten. A high value points to a low IC50. In the case of `Cc1ccc2c(c1)c(O)c(C=O)c(=O)n2Cc1ccccc1` [Formula 1.5], the CC50 at 24 h in [1] came to 16 mg/L. The IC50 in data set [2] (setting [10]) amounted to 4 mg/L. Also, in [3], the pIC50 is 4.05. Also, the “Fall in MBP” value in [4] (50 mpk) was 40 mm Hg.

Consider `O=Cc1c(O)c2ccccc2n(-c2ccccc2)c1=O` [Formula 1.9], for which the CC50 at 24 h in data set [1] was 12 mg/L. For the same molecule, in data set [5], the “Neurological Dysfunction (%)” value was 0% and the “MLS (Maximum Lesion Scores)” value stood at 0.67. In data set [2] (setting [10]), the IC50 came to 8 mg/L. Also, the pIC50 in data set [3] was 4.74.

On to `O=Cc1c(O)c2cc(OCc3ccccc3)ccc2n(Cc2ccccc2)c1=O` [Formula 1.10], for which the CC50 at 24 h in data set [1] was determined as 32 mg/L. In [2] (setting [10]), the IC50 worked out at 10 mg/L.

Turning to `CCN(CC)CC(=O)Nc1c(C)cccc1C` [lidocaine, 2-(diethylamino)-N-(2,6-dimethylphenyl)acetamide], the “antiviral activity in cell culture (in words)” value was “antiviral agent in cell culture against HSV-1 and HSV-2” in data set [6]; “antiviral agent in cell culture against HSV-1 and HSV-2” in data set [9]. The “treatment of herpes virus infections (in words)” value in data set [7] is reported as “able to treat herpes virus infections of mammals”. Further, the “treatment of HSV oral and genital lesions (in words)” value in data set [8] was “particularly effective in the treatment of HSV oral and genital lesions in humans”.

Turning to `Cn1c(=O)c(C=O)c(O)c2ccccc21` [Formula 1.7], the CC50 at 24 h in data set [1] came to 56 mg/L. The 50% inhibitory concentration (IC50) in data set [2] (setting [11]) and in [2] (setting [10]) was 7 mg/L each time.

As to `O=Cc1c(O)c2cc(Cl)ccc2n(Cc2ccccc2)c1=O` [Formula 1.6], the CC50 at 24 h in [1] was found to be 15 mg/L. Moreover, the IC50 in data set [2] (setting [10]) was 4 mg/L. In [3], the pIC50 was 4.77. In addition, the “Fall in MBP” value in data set [4] (25 mpk) was 48 mm Hg.

As to `Nc1nc2c(ncn2COCCO)c(=O)[nH]1` [Acyclovir, 9-[(2-hydroxyethoxy)methyl]guanine, reference compound], in data set [5], the “Neurological Dysfunction (%)” value was found to be 44% and the “MLS (Maximum Lesion Scores)” value was found to be 1.61.

For `Cc1cccc2c(O)c(C=O)c(=O)n(Cc3ccccc3)c12` [Formula 1.3], the CC50 at 24 h in data set [1] turned out to be 29 mg/L. Besides, the concentration for half-maximal inhibition (IC50) in data set [2] (setting [10]) turned out to be 3 mg/L. In addition, the pIC50 in [3] was 5.00. In addition, the “Fall in MBP” value in data set [4] (25 mpk) was 7 mm Hg.

On to `O=Cc1c(O)c2ccc(Cl)cc2n(Cc2ccccc2)c1=O` [Formula 1.15], for which the CC50 at 24 h in [1] was determined as 23 mg/L. The 50% inhibitory concentration (IC50) in [2] (setting [10]) was found to be 5 mg/L.

Regarding `CCCCCCn1c(=O)c(C=O)c(O)c2ccccc21` [Formula 1.11], in data set [1], the CC50 at 24 h came out at 20 mg/L. The IC50 in data set [2] (setting [10]) was 8 mg/L.

With `COc1ccc(OCCCOCn2c(=O)c(C=O)c(O)c3ccccc32)c(Cl)c1` [Formula 1.14], the concentration for half-maximal inhibition (IC50) in data set [2] (setting [10]) was found to be 18 mg/L.

As to `CC1(C)C(=O)C(C=O)=C(O)c2ccccc21` [Formula 1.16], the CC50 at 24 h in data set [1] is 34 mg/L. In addition, in [2] (setting [10]), the IC50 was 7 mg/L.

As to `O=Cc1c(O)c2cc(O)ccc2n(Cc2ccccc2)c1=O` [Formula 1.12], the IC50 in [2] (setting [10]) turned out to be 13 mg/L.

As for `O=Cc1c(O)c2ccccc2n(Cc2ccccc2)c1=O` [Formula 1.8], in data set [1], the CC50 at 24 h turned out to be 29 mg/L. Further, the IC50 in data set [2] (setting [10]) came to 7 mg/L.

As for `CCCCCCCn1c(=O)c(C=O)c(O)c2ccccc21` [Formula 1.4], in data set [1], the CC50 at 24 h was 32 mg/L. The half-inhibitory concentration (IC50) in [2] (setting [11]) and in data set [2] (setting [10]) was 4 mg/L throughout.
